# Source: the OligoGym collection
# Oligonucleotides are written 5' to 3', each unit as a sugar letter and its base; * is a phosphorothioate linkage, no mark a phosphodiester; rarer units and linkages stand in square brackets, end groups in braces. Plain capitals give the bases only. d = 2'-deoxy (DNA); r = 2'-OH (RNA)
# Assay: reporter assay of Huesken 2005
# Conditions: siRNA
# Note: test concentration or dose not given here.
row,Substance,normalised inhibition (eCFP-eYFP dual reporter)
1,sense rArArUrCrUrGrGrCrArGrArCrUrArCrArGrUrUdTdT / antisense rArArCrUrGrUrArGrUrCrUrGrCrCrArGrArUrUdCdC,81.7%
2,sense rArArUrGrArGrCrUrCrCrUrUrArCrUrUrArArCdTdT / antisense rGrUrUrArArGrUrArArGrGrArGrCrUrCrArUrUdCdC,70.8%
3,sense rArCrArCrCrArGrArGrCrCrUrGrCrCrCrCrArCdTdT / antisense rGrUrGrGrGrGrCrArGrGrCrUrCrUrGrGrUrGrUdGdA,72.8%
4,sense rArCrCrCrUrUrUrArCrArGrArArCrArCrCrCrAdTdT / antisense rUrGrGrGrUrGrUrUrCrUrGrUrArArArGrGrGrUdGdG,86.5%
5,sense rArCrUrCrCrUrUrCrCrUrUrCrUrCrUrGrArArGdTdT / antisense rCrUrUrCrArGrArGrArArGrGrArArGrGrArGrUdCdC,50.7%
6,sense rArCrUrGrArUrGrUrUrCrCrUrUrGrUrGrGrArCdTdT / antisense rGrUrCrCrArCrArArGrGrArArCrArUrCrArGrUdGdA,55.2%
7,sense rArCrUrUrArArCrUrUrCrUrGrArGrCrArArUrAdTdT / antisense rUrArUrUrGrCrUrCrArGrArArGrUrUrArArGrUdAdA,90.7%
8,sense rArGrArArCrArCrCrCrArGrGrArArUrUrCrUrUdTdT / antisense rArArGrArArUrUrCrCrUrGrGrGrUrGrUrUrCrUdGdT,84.5%
9,sense rArGrArArGrArArArCrUrUrGrCrUrCrCrArGrAdTdT / antisense rUrCrUrGrGrArGrCrArArGrUrUrUrCrUrUrCrUdCdA,90%
10,sense rArGrArCrUrArCrArGrUrUrUrCrUrUrUrCrCrCdTdT / antisense rGrGrGrArArArGrArArArCrUrGrUrArGrUrCrUdGdC,55.6%
11,sense rArGrCrGrGrGrArGrArGrArGrCrArArCrArGrGdTdT / antisense rCrCrUrGrUrUrGrCrUrCrUrCrUrCrCrCrGrCrUdGdC,43.5%
12,sense rArGrGrUrCrArCrCrArGrArGrUrGrGrArArArCdTdT / antisense rGrUrUrUrCrCrArCrUrCrUrGrGrUrGrArCrCrUdTdT,94.3%
13,sense rArGrUrGrArUrCrCrCrGrGrGrGrCrUrGrArGrAdTdT / antisense rUrCrUrCrArGrCrCrCrCrGrGrGrArUrCrArCrUdGdG,94.9%
14,sense rArUrUrGrUrUrCrCrUrGrUrGrArArCrUrGrUrGdTdT / antisense rCrArCrArGrUrUrCrArCrArGrGrArArCrArArUdGdA,76.9%
15,sense rCrArArUrCrCrGrCrCrCrCrArCrCrCrUrUrUrAdTdT / antisense rUrArArArGrGrGrUrGrGrGrGrCrGrGrArUrUrGdGdG,80.2%
16,sense rCrArCrCrArGrArGrCrCrUrGrCrCrCrCrArCrCdTdT / antisense rGrGrUrGrGrGrGrCrArGrGrCrUrCrUrGrGrUrGdTdG,90.4%
17,sense rCrArCrCrArGrArGrUrGrGrArArArCrUrCrArCdTdT / antisense rGrUrGrArGrUrUrUrCrCrArCrUrCrUrGrGrUrGdAdC,92.8%
18,sense rCrArGrGrGrGrCrArGrCrGrGrGrArGrArGrArGdTdT / antisense rCrUrCrUrCrUrCrCrCrGrCrUrGrCrCrCrCrUrGdAdA,66.2%
19,sense rCrArGrGrGrUrArUrGrCrArCrArCrCrCrGrUrGdTdT / antisense rCrArCrGrGrGrUrGrUrGrCrArUrArCrCrCrUrGdTdT,70.6%
20,sense rCrCrArCrArUrGrGrUrGrUrGrGrArArUrCrUrGdTdT / antisense rCrArGrArUrUrCrCrArCrArCrCrArUrGrUrGrGdCdA,40.2%
